What was measured:
[1] = test system: blood brain barrier; test: Fluorescently labeled dextran extravasation into mouse brain (fluorimetry); assay type: in vivo, mice
Experimental: The adenosine receptor agonists NECA, CCPA, CGS 21860, and SCH 58261 (Tocris, Ellisville, Mo.) were each dissolved in DMSO then diluted in PBS to the desired concentration; in most cases final DMSO concentrations were <0.5% (vol/vol). Lexiscan (Regadenoson; TRC, Inc., Toronto) was dissolved in PBS. For vehicle controls, DMSO was diluted in PBS to the same concentration. Dehydrated dextrans labeled with either FITC or Texas Red (Invitrogen, Carlsbad, Calif.) were re-suspended in PBS to 10 mg/ml. All experiments involving dextran injection used 1.0 mg dextran in PBS. In experiments where drug and dextran were injected concomitantly, 1.0 mg of dextran was mixed with the drug to the desired concentration in a final volume of 200 μl. In dose-response experiments, drugs and dextrans were injected concomitantly. All injections, except injections of SCH 58261, were retro-orbital i.v. with a 27-gauge needle. In the SCH 58261 experiment, SCH 58261 injections, 1 mg/kg, were intraperitoneal and mice were pre-dosed with this concentration daily for 4 days prior to the day of the experiment. An additional injection was administered at the time of the experiment. Vehicle/drug and dextrans were injected on day 5 and tissues were collected 3 h after vehicle/drug administration. In Lexiscan experiments, Lexiscan was administered i.v. with 3 injections, 5 min apart and tissues were collected at 15 min unless otherwise indicated.
In dose-response experiments and experiments with the A1 AR and A2A AR knock-out mice, drugs and dextrans were injected concomitantly. After 3 h, the mice were anesthetized with ketamine/xylazine and subjected to a nose cone containing isoflurane. They were perfused with 25-50 ml ice-cold PBS through the left ventricle of the heart then decapitated. Their brains were removed, weighed and frozen for later analysis.
Ice-cold 50 mMTris-Cl (pH 7.6) was added to frozen brains (100 μl per 100 mg brain) and were to thawed on ice. They were homogenized with a dounce homogenizer and centrifuged at […] in a microfuge for 30 min at room temperature (rt). The supernatants were transferred to new tubes and an equal volume absolute methanol was added. The samples were centrifuged again at […] for 30 min at rt. Supernatant (200 μl) was transferred to a Corning costar 96 well black polystyrene assay plate (clear bottom). Additionally, a series of standards containing 0.001-10 pg/ml dextran in 50% Tris-Cl/50% absolute methanol (vol/vol) was added to each plate. Absolute concentrations of dextrans were derived from these standard curves. Fluorimetric analysis was performed on a BioTek (Winooski, Vt.) Synergy 4. FITC-dextran was detected at 488/519 (excitation/emission) and Texas Red-dextran was detected at 592/618.

[2] = test system: Bend.3 cells; test: Albumin uptake assay; assay type: cell-based, mouse; details: BECs, 1 μM, 30 minutes, vs media and vehicle
Experimental: Bend.3 cells grown on collagen coated coverslips were incubated with albumin-alexafluor 594 (50 mg/ml) (Invitrogen) and either media alone, DMSO vehicle, NECA (1 μM), or Lexiscan (1 μM) for 30 minutes. Albumin uptake was visualized (albumin=red) utilizing the Zeiss Axio Imager M1 fluorescent microscope. Total albumin fluorescence was recorded using Zeiss Axio Vision software, and measured utilizing Image-J software.

[3] = cited from earlier work

SMILES	levels of i.v.-administered dextrans in brain compared to wild type mice ([1]; A1−/− and A2A−/− mice, i.v., 3 h)	FITC-dextran extravasation into brain (pilot experiment, data not shown) ([1]; CD73−/− mice, 10,000 Da FITC-dextran i.v.)	time of maximum entry of labeled dextran into the CNS post-treatment ([1]; WT mice, 0.08 mg/kg i.v., dextran co-administered at T0) [h]	time by which barrier permeability returns to baseline ([1]; WT mice, 0.08 mg/kg i.v., dextran given at indicated times after treatment) [h]	effect of higher concentrations on dextran entry ([1]; WT mice, doses above 0.08 mg/kg)	dose giving maximum entry of dextrans into the CNS ([1]; WT mice, i.v., 3 h) [mg/kg]	CNS entry of 10,000 Da and 70,000 Da dextrans ([1]; WT mice, i.v., 3 h, varying dose, vs vehicle)	rate of fluorescently-labeled albumin uptake [2]	half-life [3] [h]	BBB permeability after NECA administration with A2A blockade ([1]; A1 AR−/− mice pre-treated with the antagonist before NECA)	entry of 10,000 Da FITC-dextran into brain ([1]; WT mice, 1 mg/kg intraperitoneal daily for 4 days plus day of experiment)
CCNC(=O)[C@H]1O[C@@H](n2cnc3c(N)ncnc32)[C@H](O)[C@@H]1O [NECA, 5′-N-ethylcarboxamido adenosine]	significantly lower levels	dramatic increase in FITC-dextran extravasation	4 to 6	8 to 18	no additional effect or show diminished efficacy	0.08	dose-dependent increases in CNS entry	did not affect the rate of fluorescently-labeled albumin uptake	~5	–	–
Nc1nc2c(cnn2CCc2ccccc2)c2nc(-c3ccco3)nn12 [SCH58261, 2-(2-Furanyl)-7-(2-phenylethyl)-7H-pyrazolo[4,3-e][1,2,4]triazolo[1,5-c]pyrimidin-5-amine]	–	–	–	–	–	–	–	–	–	no significant increase in BBB permeability was observed	significantly decreased entry of 10,000 Da FITC-dextran

Reference: patent publication US20130224110A1, “USE OF ADENOSINE RECEPTOR SIGNALING TO MODULATE PERMEABILITY OF BLOOD-BRAIN BARRIER” (CORNELL UNIVERSITY, priority 2010, published 2013)
